In patent US10770169B2, “Method of providing a treatment to a subject based on a dynamic pathway map” (THE REGENTS OF THE UNIVERSITY OF CALIFORNIA, priority 2010, dated 2020):
Read-outs that look alike come from different tables or passages of the source.

Test system: panel of 55 breast cancer cell lines
Assay: Cell growth inhibition assay (Cell Titer Glo, 72 h, 9 doses; GI50, TGI, LC50)
Assay type: cell-based, human
[1] = 600MPE cell line, censored GI50 values, value is the negative log10 of mol/L
[2] = HCC1395 cell line, censored GI50 values, value is the negative log10 of mol/L
[3] = HCC1419 cell line, censored GI50 values, value is the negative log10 of mol/L
[4] = HCC1954 cell line, censored GI50 values, value is the negative log10 of mol/L
[5] = cell line 600MPE, value is the negative log10 of mol/L
[6] = cell line AU565, value is the negative log10 of mol/L
[7] = cell line BT474, value is the negative log10 of mol/L
[8] = cell line BT483, value is the negative log10 of mol/L
[9] = cell line CAMA1, value is the negative log10 of mol/L
[10] = cell line HCC38, value is the negative log10 of mol/L
[11] = cell line HCC70, value is the negative log10 of mol/L
[12] = cell line HCC1187, value is the negative log10 of mol/L
[13] = cell line HCC1395, value is the negative log10 of mol/L
[14] = cell line HCC1419, value is the negative log10 of mol/L
[15] = cell line HCC1428, value is the negative log10 of mol/L
[16] = cell line HCC1500, value is the negative log10 of mol/L
[17] = cell line HCC1937, value is the negative log10 of mol/L
[18] = cell line HCC1954, value is the negative log10 of mol/L
[19] = cell line HCC2185, value is the negative log10 of mol/L
[20] = cell line HCC3153, value is the negative log10 of mol/L
[21] = cell line LY2, value is the negative log10 of mol/L
[22] = cell line MCF7, value is the negative log10 of mol/L
[23] = cell line MDAMB134V, value is the negative log10 of mol/L
[24] = cell line MDAMB175V, value is the negative log10 of mol/L
[25] = cell line MDAMB361, value is the negative log10 of mol/L
[26] = cell line MDAMB415, value is the negative log10 of mol/L
[27] = cell line MDAMB453, value is the negative log10 of mol/L
[28] = cell line MDAMB468, value is the negative log10 of mol/L
[29] = cell line SKBR3, value is the negative log10 of mol/L
[30] = cell line SUM52PE, value is the negative log10 of mol/L
[31] = cell line SUM149PT, value is the negative log10 of mol/L
[32] = cell line SUM159PT, value is the negative log10 of mol/L
[33] = cell line SUM185PE, value is the negative log10 of mol/L
[34] = cell line SUM1315MO, value is the negative log10 of mol/L
[35] = cell line T47D, value is the negative log10 of mol/L
[36] = cell line UACC812, value is the negative log10 of mol/L
[37] = cell line ZR75B, value is the negative log10 of mol/L
[38] = cell line ZR751, value is the negative log10 of mol/L

COc1cc2ncnc(Nc3ccc(F)c(Cl)c3)c2cc1OCCCN1CCOCC1 [Iressa]
GI50 (Homo sapiens, 600MPE cell line, censored GI50 values, read-out: GI50 (converted)): 7.24 µM | GI50 (Homo sapiens, AU565, AU565 cell line, censored GI50 values, read-out: GI50 (converted)): 1.07 µM | GI50 (Homo sapiens, BT-474, BT474 cell line, censored GI50 values, read-out: GI50 (converted)): 0.724 µM | GI50 (Homo sapiens, BT-483, BT483 cell line, censored GI50 values, read-out: GI50 (converted)): 6.17 µM | GI50 (Homo sapiens, BT-549, BT549 cell line, censored GI50 values, read-out: GI50 (converted)): 15.1 µM | GI50 (Homo sapiens, HCC70, HCC70 cell line, censored GI50 values, read-out: GI50 (converted)): 17.4 µM | GI50 (Homo sapiens, HCC1143, HCC1143 cell line, censored GI50 values, read-out: GI50 (converted)): 11.7 µM | GI50 (Homo sapiens, HCC1395, HCC1395 cell line, censored GI50 values, read-out: GI50 (converted)): 7.08 µM | GI50 (Homo sapiens, HCC1419, HCC1419 cell line, censored GI50 values, read-out: GI50 (converted)): 2.75 µM | GI50 (Homo sapiens, HCC1428, HCC1428 cell line, censored GI50 values, read-out: GI50 (converted)): 10.7 µM | GI50 (Homo sapiens, HCC1500, HCC1500 cell line, censored GI50 values, read-out: GI50 (converted)): 8.13 µM | GI50 (Homo sapiens, HCC1806, HCC1806 cell line, censored GI50 values, read-out: GI50 (converted)): 4.68 µM | GI50 (Homo sapiens, HCC1937, HCC1937 cell line, censored GI50 values, read-out: GI50 (converted)): 8.32 µM | GI50 (Homo sapiens, HCC1954, HCC1954 cell line, censored GI50 values, read-out: GI50 (converted)): 2.04 µM | GI50 (Homo sapiens, HCC2185 cell line, censored GI50 values, read-out: GI50 (converted)): 9.33 µM | GI50 (Homo sapiens, MDA-MB-157, MDAMB157 cell line, censored GI50 values, read-out: GI50 (converted)): 15.1 µM | GI50 (Homo sapiens, MDA-MB-175-VII, MDAMB175VII cell line, censored GI50 values, read-out: GI50 (converted)): 0.209 µM | GI50 (Homo sapiens, MDA-MB-361, MDAMB361 cell line, censored GI50 values, read-out: GI50 (converted)): 6.46 µM | GI50 (Homo sapiens, MDA-MB-415, MDAMB415 cell line, censored GI50 values, read-out: GI50 (converted)): 7.41 µM | GI50 (Homo sapiens, MDA-MB-453, MDAMB453 cell line, censored GI50 values, read-out: GI50 (converted)): 7.41 µM | GI50 (Homo sapiens, SK-BR-3, SKBR3 cell line, censored GI50 values, read-out: GI50 (converted)): 2.82 µM | GI50 (Homo sapiens, SUM52PE, SUM52PE cell line, censored GI50 values, read-out: GI50 (converted)): 7.94 µM | GI50 (Homo sapiens, SUM149PT, SUM149PT cell line, censored GI50 values, read-out: GI50 (converted)): 2.88 µM | GI50 (Homo sapiens, SUM185PE, SUM185PE cell line, censored GI50 values, read-out: GI50 (converted)): 20.9 µM | GI50 (Homo sapiens, SUM1315MO2, SUM1315MO2 cell line, censored GI50 values, read-out: GI50 (converted)): 2.95 µM | GI50 (Homo sapiens, SUM-159-PT, SUM159PT cell line, censored GI50 values, read-out: GI50 (converted)): 8.51 µM | GI50 (Homo sapiens, T47D, T47D cell line, censored GI50 values, read-out: GI50 (converted)): 15.8 µM | GI50 (Homo sapiens, UACC-893, UACC893 cell line, censored GI50 values, read-out: GI50 (converted)): 1.15 µM

CC(=O)Nc1cccc(-n2c(=O)n(C3CC3)c(=O)c3c(Nc4ccc(I)cc4F)n(C)c(=O)c(C)c32)c1.C[S+](C)[O-] [GSK1120212B]
GI50 [1]: 8.17 | GI50 (BT549 cell line, censored GI50 values, value is the negative log10 of mol/L): 5.17 | GI50 (HCC70 cell line, censored GI50 values, value is the negative log10 of mol/L): 8.18 | GI50 (HCC202 cell line, censored GI50 values, value is the negative log10 of mol/L): 10.23 | GI50 [2]: 6.71 | GI50 [3]: 7.23 | GI50 (HCC1806 cell line, censored GI50 values, value is the negative log10 of mol/L): 5.08 | GI50 [4]: 6.53 | GI50 (MDAMB134VI cell line, censored GI50 values, value is the negative log10 of mol/L): 7.72 | GI50 (MDAMB175VII cell line, censored GI50 values, value is the negative log10 of mol/L): 7.94 | GI50 (MDAMB231 cell line, censored GI50 values, value is the negative log10 of mol/L): 6.86 | GI50 (MDAMB415 cell line, censored GI50 values, value is the negative log10 of mol/L): 6.13 | GI50 (MDAMB453 cell line, censored GI50 values, value is the negative log10 of mol/L): 6.61 | GI50 (SUM149PT cell line, censored GI50 values, value is the negative log10 of mol/L): 7.51 | GI50 (SUM159PT cell line, censored GI50 values, value is the negative log10 of mol/L): 7.93 | GI50 (SUM1315MO2 cell line, censored GI50 values, value is the negative log10 of mol/L): 7.19 | GI50 [5]: 8.17 | GI50 [6]: 4.82 | GI50 [7]: 4.78 | GI50 [8]: 4.78 | GI50 (cell line BT549, value is the negative log10 of mol/L): 5.17 | GI50 [9]: 4.78 | GI50 [10]: 4.78 | GI50 [11]: 8.18 | GI50 (cell line HCC202, value is the negative log10 of mol/L): 10.23 | GI50 [12]: 4.78 | GI50 [13]: 6.71 | GI50 [14]: 7.23 | GI50 [15]: 4.78 | GI50 [16]: 4.78 | GI50 (cell line HCC1806, value is the negative log10 of mol/L): 5.08 | GI50 [17]: 4.78 | GI50 [18]: 6.53 | GI50 [19]: 4.78 | GI50 [20]: 4.78 | GI50 [21]: 4.78 | GI50 [22]: 4.78 | GI50 [23]: 7.72 | GI50 (cell line MDAMB157, value is the negative log10 of mol/L): 4.78 | GI50 [24]: 7.94 | GI50 (cell line MDAMB231, value is the negative log10 of mol/L): 6.86 | GI50 [25]: 4.78 | GI50 [26]: 6.13 | GI50 (cell line MDAMB436, value is the negative log10 of mol/L): 4.81 | GI50 [27]: 6.61 | GI50 [28]: 4.85 | GI50 [29]: 4.78 | GI50 [30]: 5.06 | GI50 [31]: 7.51 | GI50 [32]: 7.93 | GI50 [33]: 4.78 | GI50 [34]: 7.19 | GI50 [35]: 4.78 | GI50 [36]: 4.78 | GI50 (cell line UACC893, value is the negative log10 of mol/L): 4.81 | GI50 [37]: 4.78 | GI50 [38]: 4.78

O=C1C(Cl)=C(NCCN2CCOCC2)C(=O)c2ncccc21 [NSC 663284]
GI50 [1]: 5.34 | GI50 (AU565 cell line, censored GI50 values, value is the negative log10 of mol/L): 5.81 | GI50 (BT20 cell line, censored GI50 values, value is the negative log10 of mol/L): 5.48 | GI50 (BT474 cell line, censored GI50 values, value is the negative log10 of mol/L): 5.56 | GI50 (BT483 cell line, censored GI50 values, value is the negative log10 of mol/L): 6.02 | GI50 (CAMA1 cell line, censored GI50 values, value is the negative log10 of mol/L): 5.58 | GI50 (HCC1143 cell line, censored GI50 values, value is the negative log10 of mol/L): 5.70 | GI50 (HCC1187 cell line, censored GI50 values, value is the negative log10 of mol/L): 5.68 | GI50 [2]: 6.16 | GI50 [3]: 5.72 | GI50 (HCC1428 cell line, censored GI50 values, value is the negative log10 of mol/L): 5.59 | GI50 (HCC1500 cell line, censored GI50 values, value is the negative log10 of mol/L): 5.42 | GI50 (HCC1937 cell line, censored GI50 values, value is the negative log10 of mol/L): 6.07 | GI50 [4]: 5.22 | GI50 [5]: 5.34 | GI50 [6]: 5.81 | GI50 (cell line BT20, value is the negative log10 of mol/L): 5.48 | GI50 [7]: 5.56 | GI50 [8]: 6.02 | GI50 [9]: 5.58 | GI50 [10]: 5.64 | GI50 [11]: 5.51 | GI50 (cell line HCC1143, value is the negative log10 of mol/L): 5.70 | GI50 [12]: 5.68 | GI50 [13]: 6.16 | GI50 [14]: 5.72 | GI50 [15]: 5.59 | GI50 [16]: 5.42 | GI50 [17]: 6.07 | GI50 [18]: 5.22 | GI50 [19]: 5.96 | GI50 [20]: 5.73 | GI50 [21]: 6.27 | GI50 [22]: 5.43 | GI50 [23]: 5.24 | GI50 [24]: 5.22 | GI50 [25]: 5.14 | GI50 [26]: 5.59 | GI50 [27]: 5.26 | GI50 [28]: 5.19 | GI50 [29]: 5.86 | GI50 [30]: 5.61 | GI50 [31]: 5.74 | GI50 [32]: 5.64 | GI50 [33]: 6.50 | GI50 (cell line SUM225CWN, value is the negative log10 of mol/L): 5.66 | GI50 [34]: 6.00 | GI50 [35]: 5.19 | GI50 [36]: 5.43 | GI50 [37]: 5.26 | GI50 [38]: 5.73
